According to US20240383954A1, “PEPTIDE INHIBITORS OF INTERLEUKIN-23 RECEPTOR AND THEIR USE TO TREAT INFLAMMATORY DISEASES” (Janssen Biotech, Inc., priority 2020, published 2024):
Positions of bridges follow the written chain, without caps; N, C: chain ends. Non-standard residues stand in square brackets, D forms with d. Residues, ends and D or L forms follow the SMILES beside them. Trp(7-Me) = Cc1cccc2c(C[C@H](N)C(=O)O)c[nH]c12; Ac6c(4,4-F2) = NC1(C(=O)O)CCC(F)(F)CC1; 2Nal = N[C@@H](Cc1ccc2ccccc2c1)C(=O)O; AEF = NCCOc1ccc(C[C@H](N)C(=O)O)cc1; αMeY = C[C@](N)(Cc1ccc(O)cc1)C(=O)O; αMeE = C[C@](N)(CCC(=O)O)C(=O)O; Cit = NC(=O)NCCC[C@H](N)C(=O)O; Pen = CC(C)(S)[C@H](N)C(=O)O; αMeK = C[C@](N)(CCCCN)C(=O)O; Thp = NC1(C(=O)O)CCOCC1; Aib = CC(C)(N)C(=O)O

Target: IL-23R (Homo sapiens, UniProt Q5VWK5)
Assay: cell-based
Conditions: PBMC pSTAT3 IC50 (nM), PBMCs from healthy donors, IL-23 5 ng/mL, 30 minutes, phosphorylated STAT3
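Further: cryopreserved PBMCs stimulated at 37 °C in 5% CO2, then lysed, with phosphorylated STAT3 quantified in lysates using a phospho-STAT panel kit.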

Chain of IL-23R (Q5VWK5 24-629): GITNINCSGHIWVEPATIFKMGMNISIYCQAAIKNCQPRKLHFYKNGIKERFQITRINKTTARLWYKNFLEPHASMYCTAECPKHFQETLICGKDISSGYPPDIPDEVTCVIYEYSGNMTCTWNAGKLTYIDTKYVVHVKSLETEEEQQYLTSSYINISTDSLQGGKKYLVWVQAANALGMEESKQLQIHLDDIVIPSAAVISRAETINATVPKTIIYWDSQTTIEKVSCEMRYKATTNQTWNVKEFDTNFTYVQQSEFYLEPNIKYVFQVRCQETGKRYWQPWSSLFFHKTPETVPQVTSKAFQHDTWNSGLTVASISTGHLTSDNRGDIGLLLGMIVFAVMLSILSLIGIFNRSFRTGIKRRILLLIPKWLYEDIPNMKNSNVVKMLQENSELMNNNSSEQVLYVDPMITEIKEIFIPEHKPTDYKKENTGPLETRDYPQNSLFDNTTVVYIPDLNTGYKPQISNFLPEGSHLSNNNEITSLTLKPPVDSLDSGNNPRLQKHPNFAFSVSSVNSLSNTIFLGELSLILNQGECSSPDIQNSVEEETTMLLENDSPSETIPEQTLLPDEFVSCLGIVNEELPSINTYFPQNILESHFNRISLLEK

| Compound | IC50 [nM] |
| --- | --- |
| CC(=O)NCCCC[C@@H]1NC(=O)[C@H](Cc2c[nH]c3c(C)cccc23)NC(=O)[C@H]([C@@H](C)O)NC(=O)[C@H](CC(N)=O)NC(=O)[C@@H](NC(=O)[C@@H](CCCNC(=N)N)NC(C)=O)C(C)(C)SSC(C)(C)[C@@H](C(=O)N[C@@H](Cc2ccc(OCCN)cc2)C(=O)N[C@@H](Cc2ccc3ccccc3c2)C(=O)NC2(C(=O)N[C@@](C)(CCC(=O)O)C(=O)N[C@@H](CC(N)=O)C(=O)N[C@@](C)(Cc3ccc(O)cc3)C(N)=O)CCOCC2)NC1=O [Compound 150, Ac-[(D)Arg]-[Pen]-N-T-[W(7-Me)]-[Lys(Ac)]-[Pen]-Phe[4-(2-aminoethoxy)]-[2-Nal]-[THP]-[aMeGlu]-N-[aMeTyr]-NH2] (Ac-[dR][Pen]NT[Trp(7-Me)]K(Ac)[Pen][AEF][2Nal][Thp][αMeE]N[αMeY]-NH2; disulfide 2-7) | 4.7 |
| CC(=O)NCCCC[C@@H]1NC(=O)[C@H](Cc2c[nH]c3c(C)cccc23)NC(=O)[C@H]([C@@H](C)O)NC(=O)[C@H](CC(N)=O)NC(=O)[C@@H](NC(C)=O)C(C)(C)SSC(C)(C)[C@@H](C(=O)N[C@@H](Cc2ccc(OCCN)cc2)C(=O)N[C@@H](Cc2ccc3ccccc3c2)C(=O)N[C@@](C)(CCCCN)C(=O)N[C@@H](CCCCNC(C)=O)C(=O)N[C@@H](CC(N)=O)C(=O)N[C@@](C)(Cc2ccc(O)cc2)C(N)=O)NC1=O [Compound 151, Ac-[Pen]-N-T-[W(7-Me)]-[Lys(Ac)]-[Pen]-Phe[4-(2-aminoethoxy)]-[2-Nal]-[a-MeLys]-[Lys(Ac)]-N-[aMeTyr]-NH2] | 5.7 |
| CC(=O)NCCCC[C@H](NC(=O)[C@](C)(CCCCN)NC(=O)[C@H](Cc1ccc2ccccc2c1)NC(=O)[C@H](Cc1ccc(OCCN)cc1)NC(=O)[C@H]1NC(=O)[C@H](CCCNC(N)=O)NC(=O)[C@H](Cc2c[nH]c3c(C)cccc23)NC(=O)[C@H]([C@@H](C)O)NC(=O)[C@H](CC(N)=O)NC(=O)[C@@H](NC(C)=O)C(C)(C)SSC1(C)C)C(=O)N[C@@H](CC(N)=O)C(=O)NC(C)(C)C(N)=O [Compound 302, MeCO-Pen-N-T-7MeW-Cit-Pen-AEF-2Nal-aMeK-K(Ac)-N-Aib-CONH2] (Ac-[Pen]NT[Trp(7-Me)][Cit][Pen][AEF][2Nal][αMeK]K(Ac)N[Aib]-NH2; disulfide 1-6) | 7 |
| CC(=O)NCCCC[C@@H]1NC(=O)[C@H](Cc2c[nH]c3c(C)cccc23)NC(=O)[C@H]([C@@H](C)O)NC(=O)[C@H](CC(N)=O)NC(=O)[C@@H](NC(=O)[C@@H](CCCNC(=N)N)NC(C)=O)C(C)(C)SSC(C)(C)[C@@H](C(=O)N[C@@H](Cc2ccc(OCCN)cc2)C(=O)N[C@@H](Cc2ccc3ccccc3c2)C(=O)NC2(C(=O)N[C@@H](CCC(=O)O)C(=O)N[C@@H](CC(N)=O)C(=O)NC3(C(N)=O)CCOCC3)CCC(F)(F)CC2)NC1=O [Compound 303, MeCO-r-Pen-N-T-7MeW-K(Ac)-Pen-AEF-2Nal-4diFAchx-E-N-THP--CONH2] (Ac-[dR][Pen]NT[Trp(7-Me)]K(Ac)[Pen][AEF][2Nal][Ac6c(4,4-F2)]EN[Thp]-NH2; disulfide 2-7) | 1.3 |
| CC(=O)NCCCC[C@@H]1NC(=O)[C@H](Cc2c[nH]c3c(C)cccc23)NC(=O)[C@H]([C@@H](C)O)NC(=O)[C@H](CC(N)=O)NC(=O)[C@@H](N)C(C)(C)SSC(C)(C)[C@@H](C(=O)N[C@@H](Cc2ccc(OCCNC(=O)OC(C)(C)C)cc2)C(=O)N[C@@H](Cc2ccc3ccccc3c2)C(=O)N[C@@](C)(CCCCNC(=O)OC(C)(C)C)C(=O)N[C@@H](CCCCNC(C)=O)C(=O)N[C@@H](CC(N)=O)C(=O)N[C@@](C)(Cc2ccccc2)C(N)=O)NC1=O [Compound 304, NH2--Pen-N-T-7MeW-K(Ac)-Pen-AEF(Boc)-2Nal-aMeK(Boc)-K(Ac)-N-aMePhe-CONH2] | 28 |
